In patent publication US11679107B2 (Eisai R&D Management Co., Ltd., priority 2018, dated 2023):
Like-named read-outs stand apart in the source and are kept apart here.

Experiments:
SF3b complexes = target: T1, SF3b complexes (Homo sapiens, UniProt O75533+Q7RTV0); assay: Scintillation proximity assay (SPA) with [3H]-labelled pladienolide probe; format: binding; conditions: SF3B1 (WT); geometric mean; read-out: SPA-ATS GMean IC50 (nM) SF3B1 (WT)
T1 construct: endogenous in cells; host or cells: Nuclear extracts; A HeLa S3 extract preparation is described for the in vitro splicing assay
Outline: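 SF3b complexes captured from nuclear extracts on anti-SF3B1 antibody SPA beads; test compounds pre-incubated 30 min before 2.5 nM [3H]-pladienolide probe added, then 30 min incubation. Bound probe read by scintillation; values from non-linear regression of concentration–response curves.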

[1] = system: Ad2 variant pre-mRNAs spliced in HeLa S3 nuclear extracts; assay: In vitro splicing assay (IVS), RT-qPCR of spliced product; format: biochemical; conditions: for IC50: geometric mean; for Ratio Ad2.1/2.2: ratio of IVS IC50 Ad2.1 to Ad2.2
Outline: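 Read-out is one-step TaqMan RT-qPCR of spliced Ad2 mRNA with Ftz as reference, normalized to DMSO and fit by non-linear regression. Reactions held HeLa S3 nuclear extract, 2 ng Ad2-derived pre-mRNA and test compound, with 15 min preincubation. Splicing was started with ATP-containing activation buffer and run 90 min at 30 °C.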

[2] = system: NCI-H1568 cells (high MCL1); assay: Cell proliferation and viability, CellTiter-Glo, 72 hours; format: cell-based; conditions: for GI50: geometric mean
Outline: (§1)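 RPMI-1640/10% FBS (Panc: + insulin, FBS 15%); 11-pt half-log dose, ~10 μM-100 pM, 0.1% DMSO; 37° C, 5% CO2; ATP luminescence read; % inhibition vs T0 and vehicle, −100% cidal to 100% uninhibited growth.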

[3] = system: Panc 05.04 cells (SF3b K700E mutant); assay: as above; format: cell-based; conditions: for GI50: geometric mean
Outline: as §1

[4] = Ad2.1 pre-mRNA substrate, read-out: qPCR-IVS-ATS GMean IC50 (nM) Ad2.1
[5] = Ad2.2 pre-mRNA substrate, read-out: qPCR-IVS-ATS GMean IC50 (nM) Ad2.2
[6] = NCI-H1568, read-out: CTGlo-ATS GMean GI50 (nM) 72 h NCIH1568.1, NCIH1568.1 cells, 72 h
[7] = NCIH1568.1 cells, 72 h, −100% cidal, 0% static, 100% maximal growth
[8] = PANC0504.1 cells, 72 h, −100% cidal, 0% static, 100% maximal growth
[9] = Panc 05.04, read-out: CTGlo-ATS GMean GI50 (nM) 72 h PANC0504.1, PANC0504.1 cells, 72 h
[10] = 72 h, NCIH1568.1, -100% = cidal, 0% = static, 100% = uninhibited growth
[11] = 72 h, PANC0504.1, -100% = cidal, 0% = static, 100% = uninhibited growth
[12] = NCI-H1568, read-out: CTGlo-ATS GMean GI50 (nM) 72 h NCIH1568.1, 72 h, NCIH1568.1
[13] = Panc 05.04, read-out: CTGlo-ATS GMean GI50 (nM) 72 h PANC0504.1, 72 h, PANC0504.1
[14] = NCI-H1568, 72 h, read-out: CTGlo-ATS GMean GI50 (nM) 72 h NCIH1568.1, NCIH1568.1 cells, 72 h
[15] = Panc 05.04, 72 h, read-out: CTGlo-ATS GMean GI50 (nM) 72 h PANC0504.1, PANC0504.1 cells, 72 h

Compound	IC50 (SF3b complexes)	IC50 [1, 4]	IC50 [1, 5]	GI50 [2, 6]	CTGlo-ATS Mean MinResponse % 72 h NCIH1568.1 [2, 7]	CTGlo-ATS Mean MinResponse % 72 h PANC0504.1 [3, 8]	GI50 [3, 9]	Ratio Ad2.1/2.2 [1]	CTGlo-ATS Mean MinResponse % 72 h NCIH1568.1 [2, 10]	GI50 ([2]; NCI-H1568, 72 h, read-out: CTGlo-ATS GMean GI50 (nM) 72 h NCIH1568.1, 72 h, NCIH1568.1)	CTGlo-ATS Mean MinResponse % 72 h PANC0504.1 [3, 11]	GI50 ([3]; Panc 05.04, 72 h, read-out: CTGlo-ATS GMean GI50 (nM) 72 h PANC0504.1, 72 h, PANC0504.1)	GI50 [2, 12]	GI50 [3, 13]	GI50 [2, 14]	GI50 [3, 15]
C/C(=C\c1cc(F)cc(N2CCN(S(=O)(=O)C3COC3)CC2)c1)[C@H]1OC(=O)C[C@H](O)CC[C@H](C)[C@@H](OC(=O)N2CCN(C)CC2)/C=C/[C@@H]1C [Compound 125]	5.06 nM	17.6 nM	14.9 nM	4.51 nM	−83.586%	−83.226%	6.76 nM									
CC(=O)N1CCC(n2nnc3c(F)cc(/C=C(\C)[C@H]4OC(=O)C[C@H](O)CC[C@H](C)[C@@H](OC(=O)N5CCNCC5)/C=C/[C@@H]4C)cc32)CC1 [Compound 253, [(2S,3S,4E,6R,7S,10R)-2-[(E)-1-[3-(1-acetylpiperidin-4-yl)-7-fluorobenzotriazol-5-yl]prop-1-en-2-yl]-10-hydroxy-3,7-dimethyl-12-oxo-1-oxacyclododec-4-en-6-yl] piperazine-1-carboxylate]	1.92 nM	10 nM	8.59 nM					1.167	−84.782%	2.42 nM	−80.763%	12.9 nM				
C/C(=C\c1cccc(S(=O)(=O)NC(C)C)c1)[C@H]1OC(=O)CC(O)CCC(C)[C@@H](OC(=O)N2CCN(C)CC2)/C=C/[C@@H]1C (stereo in doubt) [Compound 209, [(2S,3S,4E,6R,7R,10S)-10-hydroxy-3,7-dimethyl-12-oxo-2-[(E)-1-[3-(propan-2-ylsulfamoyl)phenyl]prop-1-en-2-yl]-1-oxacyclododec-4-en-6-yl] 4-methylpiperazine-1-carboxylate]	4.78 nM	3130 nM	30 nM					104.297	−51.998%		−93.368%		12.1 nM	16.4 nM		
C/C(=C\c1cc(F)cc(N2CCN(CC(=O)c3cnccn3)CC2)c1)[C@H]1OC(=O)C[C@H](O)CC[C@H](C)[C@@H](OC(=O)N2CCN(C)CC2)/C=C/[C@@H]1C [Compound 85]	4.74 nM	22 nM	27 nM		−80.438%	−90.914%									14.1 nM	8.42 nM
C/C(=C\c1cc(F)cc(N2CCN(CCO)C(=O)C2)c1)[C@H]1OC(=O)C[C@H](O)CC[C@H](C)[C@@H](OC(=O)N2CCN(C)CC2)/C=C/[C@@H]1C [Compound 104]	2.1 nM	31.9 nM	13.9 nM	5.1 nM	−69.040%	−86.795%	4.58 nM									
C/C(=C\c1cccc(COC(=O)N2CC[C@@H](F)C2)c1)[C@H]1OC(=O)C[C@H](O)CC[C@H](C)[C@@H](OC(=O)N2CCN(C)CC2)/C=C/[C@@H]1C (single isomer, unassigned) [Compound 256]	15.6 nM	> 25000 nM	112 nM					222.862	−5.090%		−88.839%		60.9 nM	43.4 nM		
C/C(=C\c1cc(N2CCOCC2)ccc1F)[C@H]1OC(=O)C[C@H](O)CC[C@H](C)[C@@H](OC(=O)N2CCC(N3CCCCC3)CC2)/C=C/[C@@H]1C [Compound 11]	9.49 nM	> 25000 nM	93.4 nM	84.4 nM	−43.979%	−91.789%	54.2 nM									
C/C(=C\c1ccc(C)c(N2CCCC2=O)c1)[C@H]1OC(=O)C[C@H](O)CC[C@H](C)[C@@H](OC(=O)N2CCN(C)CC2)/C=C/[C@@H]1C [Compound 207, [(2S,3S,4E,6R,7S,10R)-10-hydroxy-3,7-dimethyl-2-[(E)-1-[4-methyl-3-(2-oxopyrrolidin-1-yl)phenyl]prop-1-en-2-yl]-12-oxo-1-oxacyclododec-4-en-6-yl] 4-methylpiperazine-1-carboxylate]	3.46 nM	22.5 nM	15.5 nM					1.451	−63.380%		−92.266%		16.9 nM	15.1 nM		
C/C(=C\c1cc(F)cc(N2CCN(C(=O)Cn3cccn3)CC2)c1)[C@H]1OC(=O)C[C@H](O)CC[C@H](C)[C@@H](OC(=O)N2CCN(C)CC2)/C=C/[C@@H]1C [Compound 122]	5.5 nM	18.8 nM	14.3 nM	2 nM	−85.128%	−70.057%	2.1 nM									
C/C(=C\c1cc(F)cc(N2CCN(CCO)CC2)c1)[C@H]1OC(=O)C[C@H](O)CC[C@H](C)[C@@H](OC(=O)N(C)C2CCN(C)CC2)/C=C/[C@@H]1C [Compound 54]	4.29 nM	12.4 nM	15.8 nM	7.81 nM	−96.584%	−94.487%	8.66 nM									
C/C(=C\c1cccc(N2CCCS2(=O)=O)c1)[C@H]1OC(=O)C[C@H](O)CC[C@H](C)[C@@H](OC(=O)N2CCN(C)CC2)/C=C/[C@@H]1C [Compound 49]	3.04 nM	16300 nM	28.3 nM		−35.275%	−93.022%									11.7 nM	9.02 nM
C/C(=C\c1cc(F)cc(N2CCOCC2)c1)[C@H]1OC(=O)C[C@H](O)CC[C@H](C)[C@@H](OC(=O)N2CC[C@H](N(C)C)C2)/C=C/[C@@H]1C [Compound 244, [(2S,3S,4E,6R,7S,10R)-2-[(E)-1-(3-fluoro-5-morpholin-4-ylphenyl)prop-1-en-2-yl]-10-hydroxy-3,7-dimethyl-12-oxo-1-oxacyclododec-4-en-6-yl] (3S)-3-(dimethylamino)pyrrolidine-1-carboxylate]	3.38 nM	3580 nM	38.5 nM					93.018	−65.165%		−95.630%		20.2 nM	27.6 nM		
